Measured values: patent US10696726B2, “Insulin-incretin conjugates” (INDIANA UNIVERSITY RESEARCH AND TECHNOLOGY CORPORATION, priority 2013, dated 2020)
“And” between values parts separate entries of the source, which are not always exact repeats. Equal entries are not always repeated. Blank lines part the entries; values can stand above or below the compound they belong to.

Assays:
insulin receptor [1] = biological target: T1, insulin receptor (Homo sapiens, UniProt P06213); assay: Insulin receptor binding assay (competition, scintillation proximity); conditions: for Ratio: Table 3, IGF-1 receptor IC50 over insulin receptor IC50
human IGF-1 receptor = human IGF-1 receptor (Homo sapiens, UniProt P08069); assay: IGF-1 receptor binding assay (competition, scintillation proximity); conditions: Table 3, relative to IGF-1 in the same test
Chain of human IGF-1 receptor (P08069 31-736 limits assumed): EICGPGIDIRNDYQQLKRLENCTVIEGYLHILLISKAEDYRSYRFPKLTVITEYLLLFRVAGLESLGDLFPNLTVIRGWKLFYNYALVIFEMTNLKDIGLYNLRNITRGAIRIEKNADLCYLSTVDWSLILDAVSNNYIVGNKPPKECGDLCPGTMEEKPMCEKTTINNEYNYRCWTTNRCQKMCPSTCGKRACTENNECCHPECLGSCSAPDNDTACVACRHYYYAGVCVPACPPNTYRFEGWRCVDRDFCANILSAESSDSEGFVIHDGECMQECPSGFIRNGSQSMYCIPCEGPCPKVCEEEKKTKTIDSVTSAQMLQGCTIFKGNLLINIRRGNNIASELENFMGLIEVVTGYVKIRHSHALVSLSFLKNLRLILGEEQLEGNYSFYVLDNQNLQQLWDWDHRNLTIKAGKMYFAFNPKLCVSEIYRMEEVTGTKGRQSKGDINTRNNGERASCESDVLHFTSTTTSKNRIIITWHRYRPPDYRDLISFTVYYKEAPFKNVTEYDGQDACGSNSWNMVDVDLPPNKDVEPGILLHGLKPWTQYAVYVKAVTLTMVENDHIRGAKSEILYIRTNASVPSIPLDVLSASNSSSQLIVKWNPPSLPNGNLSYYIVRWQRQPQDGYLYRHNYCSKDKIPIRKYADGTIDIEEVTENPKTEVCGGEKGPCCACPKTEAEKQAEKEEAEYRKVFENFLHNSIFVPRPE
Chain of human IGF-1 receptor (P08069 741-1367 partner limits assumed): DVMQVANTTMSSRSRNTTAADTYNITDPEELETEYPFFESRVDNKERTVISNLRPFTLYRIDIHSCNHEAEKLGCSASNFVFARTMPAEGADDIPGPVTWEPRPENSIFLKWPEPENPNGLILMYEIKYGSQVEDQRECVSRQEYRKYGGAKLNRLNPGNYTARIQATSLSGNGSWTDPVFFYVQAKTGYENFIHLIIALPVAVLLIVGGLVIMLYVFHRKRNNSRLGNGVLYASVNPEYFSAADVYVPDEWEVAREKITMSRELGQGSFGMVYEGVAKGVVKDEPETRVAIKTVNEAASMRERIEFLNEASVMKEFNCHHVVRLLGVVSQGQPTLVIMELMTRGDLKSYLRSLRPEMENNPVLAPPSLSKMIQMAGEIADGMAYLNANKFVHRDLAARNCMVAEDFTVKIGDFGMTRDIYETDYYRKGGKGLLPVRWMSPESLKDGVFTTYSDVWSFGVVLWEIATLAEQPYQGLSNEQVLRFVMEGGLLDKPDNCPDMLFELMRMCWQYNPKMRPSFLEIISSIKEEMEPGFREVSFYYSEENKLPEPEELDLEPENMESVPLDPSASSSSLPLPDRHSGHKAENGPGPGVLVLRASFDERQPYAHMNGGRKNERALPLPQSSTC

glucagon receptor = biological target: T2, glucagon receptor (Homo sapiens, UniProt P47871); assay: Glucagon functional assay, cAMP synthesis (luciferase reporter, HEK293 cells); assay type: cell-based; conditions: FIG. 12
T2 construct: expressed in transfected cells; host or cells: HEK293

insulin receptor [2] = biological target: T1, insulin receptor; assay: Insulin receptor phosphorylation assay in receptor transfected HEK293 cells; assay type: cell-based; parameters: expressed in transfected cells; host or cells: HEK293; conditions: FIGS. 10 and 11

- Ratio (insulin receptor [1]): 82.6
Compound: CC[C@H](C)[C@H](NC(=O)CN)C(=O)N[C@H](C(=O)N[C@@H](CC(=O)O)C(=O)N[C@@H](CCC(=O)O)C(=O)N[C@H]1CSSC[C@@H]2NC(=O)[C@H](CO)NC(=O)[C@H](CCCNC(=N)N)NC(=O)[C@H](Cc3ccccc3)NC(=O)[C@H](CSSC[C@H](NC(=O)[C@H](CC(C)C)NC(=O)[C@@H](NC(=O)[C@H](CCC(=O)O)NC(=O)[C@@H]3CCCN3C(=O)CN)[C@@H](C)O)C(=O)NCC(=O)N[C@@H](CO)C(=O)N[C@@H](Cc3c[nH]cn3)C(=O)N[C@@H](CC(C)C)C(=O)N[C@@H](C(C)C)C(=O)N[C@@H](CCC(=O)O)C(=O)N[C@@H](C)C(=O)N[C@@H](CC(C)C)C(=O)N[C@@H](Cc3ccc(O)cc3)C(=O)N[C@@H](CC(C)C)C(=O)N[C@@H](C(C)C)C(=O)N[C@H](C(=O)NCC(=O)N[C@@H](CC(=O)O)C(=O)N[C@@H](CCCNC(=N)N)C(=O)NCC(=O)N[C@@H](Cc3ccccc3)C(=O)N[C@@H](Cc3ccc(O)cc3)C(=O)N[C@@H](Cc3ccccc3)C(=O)N[C@@H](CC(N)=O)C(=O)N[C@@H](CCCCN)C(=O)N3CCC[C@H]3C(=O)N[C@H](C(N)=O)[C@@H](C)O)CSSC[C@@H](C(=O)N[C@@H](C)C(N)=O)NC(=O)[C@H](Cc3ccc(O)cc3)NC(=O)[C@H](CCSC)NC(=O)[C@H](CCC(=O)O)NC(=O)[C@H](CC(C)C)NC(=O)[C@H](CCCNC(=N)N)NC(=O)[C@H](CCCNC(=N)N)NC(=O)[C@H](CC(C)C)NC(=O)[C@H](CC(=O)O)NC2=O)NC1=O)C(C)C

- % of Insulin Activity (insulin receptor [1]; Table 2, relative to Insulin Standard): 262%
Compound: CC[C@H](C)[C@H](NC(=O)CN)C(=O)N[C@H](C(=O)N[C@@H](CC(=O)O)C(=O)N[C@@H](CCC(=O)O)C(=O)N[C@H]1CSSC[C@@H]2NC(=O)[C@H](CO)NC(=O)[C@H](CCCNC(=N)N)NC(=O)[C@H](Cc3ccccc3)NC(=O)[C@H](CSSC[C@H](NC(=O)[C@H](CC(C)C)NC(=O)[C@@H](NC(=O)[C@H](CCC(=O)O)NC(=O)[C@@H]3CCCN3C(=O)CN)[C@@H](C)O)C(=O)NCC(=O)N[C@@H](C)C(=O)N[C@@H](CCC(=O)O)C(=O)N[C@@H](CC(C)C)C(=O)N[C@@H](C(C)C)C(=O)N[C@@H](CC(=O)O)C(=O)N[C@@H](C)C(=O)N[C@@H](CC(C)C)C(=O)N[C@@H](Cc3ccc(O)cc3)C(=O)N[C@@H](CC(C)C)C(=O)N[C@@H](C(C)C)C(=O)N[C@H](C(=O)NCC(=O)N[C@@H](CC(=O)O)C(=O)N[C@@H](CCCNC(=N)N)C(=O)NCC(=O)N[C@@H](Cc3ccccc3)C(=O)N[C@@H](Cc3ccc(O)cc3)C(=O)N[C@@H](Cc3ccccc3)C(=O)N[C@@H](CC(N)=O)C(=O)N[C@@H](CCCCN)C(=O)N3CCC[C@H]3C(=O)N[C@H](C(N)=O)[C@@H](C)O)CSSC[C@@H](C(=O)N[C@@H](C)C(N)=O)NC(=O)[C@H](Cc3ccc(O)cc3)NC(=O)[C@H](CCSC)NC(=O)[C@H](CCC(=O)O)NC(=O)[C@H](CC(C)C)NC(=O)[C@H](CCCNC(=N)N)NC(=O)[C@H](CCCNC(=N)N)NC(=O)[C@H](CC(C)C)NC(=O)[C@H](CC(=O)O)NC2=O)NC1=O)C(C)C [IGF1 (Y^B16L^B17)]
- insulin receptor binding relative to native insulin (in words) (insulin receptor [1]; FIGS. 2-4, Tables 1 and 2): highly potent agonists of the insulin receptor

- IGF-1 Receptor % IGF-1 (in test) (human IGF-1 receptor): 0.9%
- Ratio (insulin receptor [1]): 22.6
- Insulin Receptor % insulin (in test) (insulin receptor [1]; Table 3, relative to insulin in the same test): 14.0% and 11.3% and 20.1%
- Insulin Receptor % native insulin activity (0.6 nM) (insulin receptor [1]; Table 3, relative to native insulin taken as 0.6 nM): 21.7% and 22.5% and 24.2%
Compound: CC[C@H](C)[C@H](NC(=O)CN)C(=O)N[C@H](C(=O)N[C@@H](CC(=O)O)C(=O)N[C@@H](CCC(=O)O)C(=O)N[C@H]1CSSC[C@@H]2NC(=O)[C@H](CO)NC(=O)[C@H](CCCNC(=N)N)NC(=O)[C@H](Cc3ccccc3)NC(=O)[C@H](CSSC[C@H](NC(=O)[C@H](CC(C)C)NC(=O)[C@H](Cc3c[nH]cn3)NC(=O)[C@H](CCC(N)=O)NC(=O)[C@H](CC(N)=O)NC(=O)[C@@H](NC(=O)[C@@H](N)Cc3ccccc3)C(C)C)C(=O)NCC(=O)N[C@@H](CO)C(=O)N[C@@H](Cc3c[nH]cn3)C(=O)N[C@@H](CC(C)C)C(=O)N[C@@H](C(C)C)C(=O)N[C@@H](CCC(=O)O)C(=O)N[C@@H](C)C(=O)N[C@@H](CC(C)C)C(=O)N[C@@H](Cc3ccc(O)cc3)C(=O)N[C@@H](CC(C)C)C(=O)N[C@@H](C(C)C)C(=O)N[C@H](C(=O)NCC(=O)N[C@@H](CC(=O)O)C(=O)N[C@@H](CCCNC(=N)N)C(=O)NCC(=O)N[C@@H](Cc3ccccc3)C(=O)N[C@@H](Cc3ccc(O)cc3)C(=O)N[C@@H](Cc3ccccc3)C(=O)N[C@@H](CC(N)=O)C(=O)N[C@@H](CCCCN)C(=O)N3CCC[C@H]3C(=O)N[C@H](C(N)=O)[C@@H](C)O)CSSC[C@@H](C(=O)N[C@@H](C)C(N)=O)NC(=O)[C@H](Cc3ccc(O)cc3)NC(=O)[C@H](CCSC)NC(=O)[C@H](CCC(=O)O)NC(=O)[C@H](CC(C)C)NC(=O)[C@H](CCCNC(=N)N)NC(=O)[C@H](CCCNC(=N)N)NC(=O)[C@H](CC(C)C)NC(=O)[C@H](CC(=O)O)NC2=O)NC1=O)C(C)C [IGF-1 A: In (1-17)-IGF-1 B (18-30)]

- in vitro glucagon receptor activity (EC50 values, in words) (glucagon receptor): poor activity at the glucagon receptor
- in vitro insulin receptor activity (EC50 values, in words) (insulin receptor [2]): poor activity at the insulin receptor
Compound: GLP-1: native GLP-1: GLP-1(7-36) amide SEQ ID NO: 703 or GLP-1(7-37) acid SEQ ID NO: 704 [reference compound]
